# Earlier results, collected in article PMC9374181 (Toxicology and applied pharmacology, 2022).
# Like-named read-outs stand apart in the source and are kept apart here.
# How the values were obtained:
# [1] = rat models, IM
# [2] = general statement on approved oximes
SMILES,"Cmax ([1]; 50 mg/kg, no reference given) [ng/mL]",plasma T1/2 [2],"plasma T1/2 (ref Alioth-Streichenberg et al., 1991) [min]","Cmax ([1]; 40 mg/kg, ref Green et al., 1986) [ng/mL]","published half-life (published value, no reference given)","Cmax ([1]; 50 mg/kg, ref Cassel and Fosbraey, 1996) [ng/mL]","plasma T1/2 (ref Cassel and Fosbraey, 1996) [min]"
O/N=C/c1cc[n+](COC[n+]2ccc(/C=N/O)cc2)cc1 [obidoxime],26000,less than 90 min,35,–,–,–,–
"C[n+]1ccccc1/C=N/O [Oxime 2-PAM, pralidoxime]",–,less than 90 min,–,14500,less than 2 hours,–,–
NC(=O)c1cc[n+](COC[n+]2ccccc2/C=N/O)cc1 [asoxime],–,less than 90 min,–,–,–,900,48
